Results on three molecules are retold here after US20130183239A1, “ISOTOPIC CARBON CHOLINE ANALOGS” (IMPERIAL COLLEGE, priority 2010, published 2013).

Like-named read-outs stand apart in the source and are kept apart here.

For data set [1] the following is noted: mouse, in vivo. As to the method: (§1) Radiolabeled metabolites from plasma and tissues were quantified using a method adapted from Smith G, Zhao Y, Leyton J, et al. Radiosynthesis and pre-clinical evaluation of [(18)F]fluoro-[1,2-(2)H(4)]choline. Nucl Med Biol. 2011; 38:39-51. Briefly, tumor-bearing mice under terminal anaesthesia were administered a bolus i.v. injection of one of the following radiotracers: ^11C-choline, ^11C-D4-choline (˜18.5 MBq) or ^18F-D4-choline (˜3.7 MBq), and sacrificed by exsanguination via cardiac puncture at 2, 15, 30 or 60 min post radiotracer injection. For automated radiosynthesis methodology, see Example 22. Tumor, kidney and liver samples were immediately snap-frozen in liquid nitrogen. Aliquots of heparinized blood were rapidly centrifuged (14000 g, 5 min, 4° C.) to obtain plasma. Plasma samples were subsequently snap-frozen in liquid nitrogen and kept on dry ice prior to analysis.
(§2) For analysis, samples were thawed and kept at 4° C. immediately before use. To ice cold plasma (200 μl) was added ice cold methanol (1.5 mL) and the resulting suspension centrifuged (14000 g; 4° C.; 3 min). The supernatant was then decanted and evaporated to dryness on a rotary evaporator (bath temperature, 40° C.), then resuspended in HPLC mobile phase (Solvent A: acetonitrile/water/ethanol/acetic acid/1.0 M ammonium acetate/0.1 M sodium phosphate [800/127/68/2/3/10]; 1.1 mL). Samples were filtered through a hydrophilic syringe filter (0.2 μm filter; Millex PTFE filter, Millipore, Mass., USA) and the sample (˜1 mL) then injected via a 1 mL sample loop onto the HPLC for analysis. Tissues were homogenized in ice-cold methanol (1.5 mL) using an Ultra-Turrax T-25 homogenizer (IKA Werke GmbH and Co. KG, Staufen, Germany) and subsequently treated as per plasma samples.
(§3) Samples were analyzed on an Agilent 1100 series HPLC system (Agilent Technologies, Santa Clara, Calif., USA), configured as described above, using the method of Leyton J, Smith G, Zhao Y, et al. [18F]fluoromethyl-[1, 2-2H4]-choline: a novel radiotracer for imaging choline metabolism in tumors by positron emission tomography. Cancer Res. 2009; 69:7721-7728. A μBondapak C18 HPLC column (Waters, Milford, Mass., USA; […]), stationary phase and a mobile phase comprising of Solvent A (vide supra) and Solvent B (acetonitrile/water/ethanol/acetic acid/1.0 M ammonium acetate/0.1 M sodium phosphate (400/400/68/44/88/10)), delivered at a flow rate of 3 mL/min were used for analyte separation. The gradient was set as follows: 0% B for 5 min; 0% to 100% B in 10 min; 100% B for 0.5 min; 100% to 0% B in 2 min; 0% B for 2.5 min.
(§4) A 2-tissue irreversible compartmental model was employed to fit the TACs, as has been previously established for ^11C-choline (Kenny L M, Contractor K B, Hinz R, et al. Reproducibility of [11C]choline-positron emission tomography and effect of trastuzumab. Clin Cancer Res. Aug. 15 2010; 16(16):4236-4245; and Sutinen E, Nurmi M, Roivainen A, et al. Kinetics of [(11)C]choline uptake in prostate cancer: a PET study. Eur J Nucl Med Mol. Imaging. March 2004; 31(3):317-324). An estimate of the whole blood TAC (wbTAC(t)) was derived from the PET image itself, as described above. […] Therefore it was fitted with a sum of 3 exponentials from the peak on and the fitted function was used as input function in the kinetic modeling (after metabolite correction, see below). […] The pf values were fitted to a sum of two exponentials with the constraint pf(t=0)=1 to obtain the function pf(t).

For data set [2] the following is noted: mouse, in vivo. Here is the method:
^11C-choline, ^11C-D4-choline (˜18.5 MBq) and ^18F-D4-choline (˜3.7 MBq) were each injected via the tail vein of anaesthetized BALB/c nude mice. The mice were maintained under anesthesia and sacrificed by exsanguination via cardiac puncture at 2, 15, 30 or 60 min post radiotracer injection to obtain blood, plasma, heart, lung, liver, kidney and muscle. Tissue radioactivity was determined on a gamma counter (Cobra II Auto-Gamma counter, Packard Biosciences Co, Pangbourne, UK) and decay corrected. Data were expressed as percent injected dose per gram of tissue.
Time course biodistribution was performed in non-tumor-bearing male nude mice with ^11C-choline, ^11C-D4-choline and ^18F-D4-choline tracers.
The source holds these as a separate data set.

Data set [3] deals with HCT116 tumors. To be noted: HCT116 tumors, dynamic PET. Here is the method: Dynamic ^11C-choline, ^11C-D4-choline and ^18F-D4-choline imaging scans were carried out on a dedicated small animal PET scanner (Siemens Inveon PET module, Siemens Medical Solutions USA, Inc., Malvem, Pa., USA) following a bolus i.v. injection in tumor-bearing mice of either ˜3.7 MBq for ^18F studies, or ˜18.5 MBq for ^11C. Dynamic scans were acquired in list mode format over 60 min. The acquired data were then sorted into 0.5 mm sinogram bins and 19 time frames for image reconstruction (4×15 s, 4×60 s, and 11×300 s), which was done by filtered back projection. For input function analysis, data were sorted into 25 time frames for image reconstruction (8×5 s, 1×20 s, 4×40 s, 1×80 s, and 11×300 s). The Siemens Inveon Research Workplace software was used for visualization of radiotracer uptake in the tumor; 30 to 60 min cumulative images of the dynamic data were employed to define 3-dimensional (3D) regions of interest (ROIs). Arterial input function was estimated as follows: a single voxel 3D ROI was manually drawn in the center of the heart cavity using 2 to 5 min cumulative images. Care was taken to minimize ROI overlap with the myocardium. The count densities were averaged for all ROIs at each time point to obtain a time versus radioactivity curve (TAC). Tumor TACs were normalized to injected dose, measured by a VDC-304 dose calibrator (Veenstra Instruments, Joure, The Netherlands), and expressed as percentage injected dose per mL tissue. The area under the TAC, calculated as the integral of % ID/mL from 0-60 min, and the normalized uptake of radiotracer at 60 min (% ID/mL60) were also used for comparisons.
as §4, with “pf(t). The parent whole blood TAC wbTACPAR(t) was then computed by multiplying wbTAC(t) and pf(t) and used as input function to estimate the parameters K1 (mL/cm^3/min), k2 (1/min), k3 (1/min) and Vb (unitless). The steady state net irreversible uptake rate constant Ki (mL/cm^3/min) was calculated from the estimated microparameters as K1k3/(k2+k3).” for “pf(t).”

Data set [4] deals with HCT116 tumors. To be noted: mouse, in vivo. As to the method: as §1, §2, §3
^11C-choline, ^11C-D4-choline and ^18F-D4-choline metabolism were measured in HCT116 tumors (FIG. 22).

Data set [5] deals with human melanoma (A375), prostate (PC3-M) and colon (HCT116) cancer cell lines. The experiment in a line: In vitro 18F-D4-choline uptake in cancer cell lines. The settings on record: hemicholinium-3 5 mM, 18F-D4-choline uptake, all three cell lines. In kind it is cell-based. Here is the method: Uptake was measured in vehicle-treated (closed symbols) and hemicholinium-3-treated cells (5 mM; open symbols). Mean values+SEM are shown (n=3). Insert: representative western blot of choline kinase-α expression in the three cell lines. Actin was used as a loading control. Abbreviations: CKα, choline kinase alpha.
Cells (5×10^5) were plated into 6-well plates the night prior to analysis. On the day of the experiment, fresh growth medium, containing 40 μCi ^18F-D4-choline, was added to individual wells. Cell uptake was measured following incubation at 37° C. in a humidified atmosphere of 5% CO2 for 60 min. Plates were subsequently placed on ice, washed 3 times with ice-cold PBS and lysed in RIPA buffer (Thermo Fisher Scientific Inc., Rockford, Ill., USA; 1 mL, 10 min). […] Aliquots were snap-frozen and used for protein determination following radioactive decay using a BCA 96-well plate assay (Thermo Fisher Scientific Inc., Rockford, Ill., USA). Data were expressed as percent of total radioactivity per mg protein. For hemicholinium-3 treatment (5 mM; Sigma-Aldrich), cells were incubated with the compound 30 min prior to addition of radioactivity and for the duration of the uptake time course. […]

As to `[2H]C([2H])(O)C([2H])([2H])[N+](C)(C)[11CH3]` [^11C-D4-choline, ^11C-[1,2-^2H4]choline], the “liver radioactivity as betaine” value in data set [1] was found to be 24.5±2.1%. In addition, in data set [2], the “increase in kidney retention compared to 11C-choline” value is listed as 1.8 fold and the urinary excretion entry was “trend towards increased urinary excretion”. The “tumor tracer kinetics between 30 and 60 min” value in the data set with HCT116 tumors [3] was “Slow wash-out of activity”. Besides, in the data set on HCT116 tumors [4], the “tumor betaine-to-phosphocholine metabolite ratio increase compared to 18F-D4-choline” value amounted to 259% and the “tumor radioactivity corresponding to phosphocholine” value turned out to be 43.8±1.5%.

Turning to `C[N+](C)([11CH3])CCO` [^11C-choline, reference compound], in data set [1] (BALB/c nude, 2 min), the “liver radioactivity as betaine” value amounted to 49.2±7.7% and the “plasma radioactivity in the form of betaine” value was 12.1±2.6%. In addition, in data set [1] (BALB/c nude, 15 min), the “plasma radioactivity in the form of betaine” value is given as 78.6±4.4%. Besides, the “tumor tracer kinetics between 30 and 60 min” value in the data set on HCT116 tumors [3] was “gradual accumulation”. In the data set with HCT116 tumors [4] (BALB/c nude), the “tumor betaine-to-phosphocholine metabolite ratio increase compared to 18F-D4-choline” value is listed as 388%. Also, in the data set with HCT116 tumors [4] (BALB/c nude, 15 min), the “increase in the ratio of betaine:phophocholine in comparison to 18F-D4-choline” value came out at 388% and the “tumor radioactivity corresponding to phosphocholine” value turned out to be 30.5±4.0%. Moreover, in the data set on HCT116 tumors [4] (BALB/c nude, 60 min), the “increase in the ratio of betaine:phophocholine in comparison to 18F-D4-choline” value worked out at 230% and the tumor betaine radioactivity was found to be 28.1±2.9%.

As to `C[N+]1(C)CCOC(O)(c2ccc(-c3ccc(C4(O)C[N+](C)(C)CCO4)cc3)cc2)C1.[Br-].[Br-]` (stereo not shown) [hemicholinium-3, reference compound], in data set [5], the “decrease in intracellular tracer radioactivity” value is reported as over 90%.
